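1) Cells in 96-well plates. 2) Compound, 48 h, 5 concentrations. 3) Linear interpolation between surrounding doses. 4) Unreached endpoint = highest concentration. Abbreviation: GI50, concentration required for 50% inhibition of growth. TGI: total growth inhibition.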
Tests used:
Experiment in all cases: DTP human tumour cell line panel, 48 h
KM12 colon = test system: KM12 colon
SNB-19 CNS = test system: SNB-19 CNS
A498 renal = test system: A498 renal
U251 CNS = test system: U251 CNS
SNB-75 CNS = test system: SNB-75 CNS
NCI-H226 lung = test system: NCI-H226 lung
SF-295 CNS = test system: SF-295 CNS
NCI-H460 lung = test system: NCI-H460 lung
OVCAR-5 ovarian = test system: OVCAR-5 ovarian
TK-10 renal = test system: TK-10 renal

Structure (SMILES)	TGI (KM12 colon) [µM]	TGI (SNB-19 CNS) [µM]	TGI (A498 renal) [µM]	TGI (U251 CNS) [µM]	TGI (SNB-75 CNS) [µM]	TGI (NCI-H226 lung) [µM]	TGI (SF-295 CNS) [µM]	TGI (NCI-H460 lung) [µM]	TGI (OVCAR-5 ovarian) [µM]	TGI (TK-10 renal) [µM]	GI50 (KM12 colon) [µM]	GI50 (SNB-19 CNS) [µM]	GI50 (TK-10 renal) [µM]	GI50 (U251 CNS) [µM]	GI50 (SF-295 CNS) [µM]	GI50 (NCI-H460 lung) [µM]	GI50 (OVCAR-5 ovarian) [µM]	GI50 (A498 renal) [µM]	GI50 (SNB-75 CNS) [µM]	GI50 (NCI-H226 lung) [µM]
CCOC(=O)c1cc2cc([N+](=O)[O-])ccc2oc1=O	> 100	> 100	> 100	> 100	> 100	> 100	> 100	> 100	> 100											
COc1ccccc1OCC(COC(=O)Nc1ccc(C)cc1)OC(=O)Nc1ccc(C)cc1 (stereo not drawn)	43.4	46.7	> 100	27.3	69.1	67.5	49	30.3	47.4	47										
OCC1CC2CC1C1(C2)OCCO1 (stereo not drawn)	> 100	> 100	> 100	> 100	> 100	> 100	> 100	> 100	> 100	> 100										
CN(C)c1ccc(/C=N/Nc2ccc(-c3nc4ccccc4[nH]3)cc2)cc1	> 50	> 50		21.5			> 50	20.4	> 50	> 50	9.81	17.3	47.3	6.3	3.19	9.33	28.9			
N#CC(C#N)=C/C=C/c1cccc([N+](=O)[O-])c1	3.2	16	5.21	5.03	6.28		10.3	2.68	7.96		1.28	3.35		1.08	2.28	1.21	2.24	1.99	1.73	
C=C1C(=O)C23C(CC(OC(C)=O)C1[C@@H]2OC(C)=O)C1(C)C(OC(C)=O)CCC(C)(C)C1C[C@@H]3OC(C)=O (stereo partly drawn)	3.49	3.31	3.4	2.95	2.89	3.13	2.86	3.37	3.27											
CC(=O)OCC1OC(O[C@@H]2C[C@H]3C(C)(C)[C@H](OC(C)=O)CC[C@]3(C)[C@H]3CC[C@@H]4[C@]5(CC[C@@]4(C)[C@@]32C)O[C@@H]([C@H](O)C(C)(C)O)C[C@@H]5C)C(O)C(O)C1O (stereo partly drawn)	7.68	30.5	25.9	19.1	18.4	28.2	19.2	20.8	17.5		2	12.5			6.43	6.54	5.07	11.7	5.13	10.7
NC(=NC1C2CC3CC(C2)CC1C3)Nc1ccc(I)cc1 (stereo not drawn)		16.6	6.77	12.6	15.7	22.2	6.75	13	21.7	8.85		4.35	2.59	3.42	2.51	3.66	4.5	2.47	2.09	5.41
C=C(C)[C@@H]1CC[C@]2(C#N)CC[C@]3(C)[C@H](CC[C@@H]4[C@@]5(C)CCCNC(C)(C)[C@@H]5CC[C@]43C)[C@@H]12	3.23	4.69	23	3.13		9.79	3.1	3.54	7.15	4.54	1.66	2.29	2.04	1.75	1.7	1.88	2.72	10.1		2.61
O=C(O)c1oc2ccc([N+](=O)[O-])c3c2c1CCC3	> 100	> 100		> 100	> 100	> 100	> 100	> 100	> 100	> 100										
C[C@@H]1CC[C@H]2C(CN3CCN(CC4=C(C(F)(F)F)O[C@@H]5O[C@@]6(C)CC[C@H]7[C@H](C)CC[C@@H]4[C@@]57OO6)CC3)=C(C(F)(F)F)O[C@@H]3O[C@@]4(C)CC[C@@H]1[C@]32OO4	> 26.6	> 100		> 39.9	> 29.4	> 100	> 100	> 100	> 100	99.7	0.944	7.75	4.2	0.653	5.01	3.14	1.45		1.74	2.81
ClCc1ccc(Cn2cnc3ncnc(Cl)c32)cc1	3.48	3.15	3.37	2.29		12	5.07	4.31	19.7	2.92	1.66	1.72	1.48	1.09	2.06	1.78	6.26	1.81		2.99
COc1ccc2c(c1)[n+]([O-])c(-c1ccc(Cl)c(Cl)c1)c(N)[n+]2[O-]	> 100	> 100	> 100	> 100	> 100	> 100	> 100	> 100	> 100											
Cc1nc(Nc2ccc([N+](=O)[O-])cc2)sc1C(=O)/C=C/c1ccc(N(C)C)cc1	> 100	> 100	> 100	> 100	> 100		> 100	> 100	> 100	> 100										
C/C(=N\NC(=S)Nc1ccc([N+](=O)[O-])cc1S(=O)(=O)O)c1ccccn1	> 100		88.8	> 100	> 100	> 100	> 100	69	> 100	> 100										
CN(C)/C(=N/C(=O)Nc1ccccc1)SCc1ccccc1	> 100	> 100	> 100	> 100	> 100	> 100	> 100		> 100	> 100										
COCCn1cc(-c2csc(-c3c[nH]c4ccc(F)cc34)n2)c2cccnc21	> 100	> 100	9.4	> 100	> 100		> 100	> 100	> 100		1.77	98		5.14	3.2	3.38	10.1	3.26	2.97	
